Here are results for 12 compounds from ChEMBL document CHEMBL1201862, “PubChem BioAssay data set” (2004).

Common to all, as to assay: NCI anticancer screen, dose series, 48 h
Assay [1] has as its system HCT-15.
Assay [2] concerns HOP-62.
For assay [3], the system named is HT-29.
Assay [4] deals with K562.
Assay [5] has as its system MDA-MB-231.
The test system of assay [6] is NCI-H226.
The subject of assay [7] is NCI-H23.
The test system of assay [8] is OVCAR-3.
The subject of assay [9] is OVCAR-4.
The subject of assay [10] is OVCAR-5.
Assay [11] concerns OVCAR-8.
In assay [12] the test system is PC-3.
Assay [13] relates to SF-539.
Assay [14] has as its system SK-MEL-2.
Assay [15] concerns SNB-19.
Assay [16] has as its system TK-10.
The subject of assay [17] is UACC-257.
Assay [18] deals with IGROV-1.
Assay [19] deals with Hs-578T.

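Compound exposure: 48 hours, 5 concentrations, 96-well plates. GI50 marks 50% less growth.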 Calls of active or inactive are those of the source. No stated cut-off is given here; in the data, active = GI50 up to about 1.1 µM and inactive = higher.

For `O=c1[nH]c(=O)c2ncn(-c3ccc([N+](=O)[O-])cn3)c2[nH]1`, the GI50 in assay [1] is over 100 µM; in assay [2], > 100 µM (inactive); in [3], > 100 µM (inactive); in assay [4] it was > 100 µM (inactive); in assay [5] it was > 100 µM (inactive); in assay [6], > 100 µM (inactive). Also, the GI50 in [7], in assay [8], in assay [9], in assay [10], in assay [11] and in [12] was > 100 µM (inactive) in each case. The GI50 in assay [13], in assay [14], in assay [15], in [16] and in [17] was > 100 µM (inactive) throughout.
With `CC(C)CC(NC(=O)C(CI)Cc1ccccc1)C(=O)Nc1ccccc1` (stereo not given), the GI50 in assay [1] was over 100 µM; in [18], > 100 µM (inactive); in assay [4], > 100 µM (inactive); in [5], > 100 µM (inactive); in assay [7], > 100 µM (inactive); in assay [8], > 100 µM (inactive). Besides, the GI50 in assay [9] is 50 µM (inactive); in [10] it was > 100 µM (inactive); in assay [11], > 100 µM (inactive); in assay [12], > 100 µM (inactive); in [13], > 100 µM (inactive); in assay [14], > 100 µM (inactive). Also, the GI50 in assay [15], in [16] and in [17] was > 100 µM (inactive) throughout.
As for `COC1OC(Cc2nnc(C)o2)C(OCc2ccccc2)C(OCc2ccccc2)C1OCc1ccccc1` (stereo not given), the GI50 in assay [1] was 35.9 µM; in assay [2], 52.1 µM (inactive); in assay [3], 26.4 µM (inactive); in assay [19], 43 µM (inactive); in assay [18], 13.9 µM (inactive); in [4], 20.9 µM (inactive). Also, the GI50 is 36.1 µM (inactive) in [5]; 29.5 µM (inactive) in [6]; 19.9 µM (inactive) in [7]; 18.3 µM (inactive) in assay [8]; 41.4 µM (inactive) in assay [9]; 41.2 µM (inactive) in assay [10]. Also, the GI50 was 38.3 µM (inactive) in [13], 14.5 µM (inactive) in assay [14], 57.8 µM (inactive) in assay [15] and 17.2 µM (inactive) in assay [17].
On to `COc1ccc2c(c1)CC[C@@H]1[C@@H]2CC[C@]2(C)C(=O)/C(=C/c3ccncc3)C[C@@H]12`, for which the GI50 in assay [1] was 41.4 µM; in assay [2], 19.9 µM (inactive); in [3] it was 33.1 µM (inactive); in assay [18], 56.1 µM (inactive); in assay [4] it was > 100 µM (inactive); in [5], 64.7 µM (inactive). Moreover, the GI50 in assay [6] was 63 µM (inactive); in [7] it was 35.3 µM (inactive); in [8] it was 17.8 µM (inactive); in assay [9], 48.2 µM (inactive); in assay [10], 48.9 µM (inactive); in assay [11], 51.6 µM (inactive). Besides, the GI50 is 29.3 µM (inactive) in [12]; 25.5 µM (inactive) in assay [13]; 22.5 µM (inactive) in assay [14]; 44.3 µM (inactive) in assay [15]; 30.6 µM (inactive) in assay [16]; 29.3 µM (inactive) in assay [17].
As for `O=C(O)c1ccccc1/C=C1/Cc2ccc3c(c2C1=O)CCC3`, the GI50 was 33.6 µM in [1]; 68.9 µM (inactive) in assay [2]; 44.7 µM (inactive) in assay [3]; 32.2 µM (inactive) in [19]; 43.6 µM (inactive) in assay [18]; 33.3 µM (inactive) in assay [4]. The GI50 in assay [6] was 36.2 µM (inactive); in assay [7], 35.6 µM (inactive); in assay [8], 31.8 µM (inactive); in assay [9], 29.8 µM (inactive); in assay [10] it was 20.9 µM (inactive); in assay [11], 48.1 µM (inactive). Further, the GI50 was 42.9 µM (inactive) in [12]; 23.9 µM (inactive) in assay [13]; 12.7 µM (inactive) in assay [14]; 54.7 µM (inactive) in [15]; 90.8 µM (inactive) in assay [16]; 41.8 µM (inactive) in [17].
Take `CC(C)(C)c1cc2c(O)c(c1)COCc1cc(C(C)(C)C)cc(c1O)COCc1cc(C(C)(C)C)cc(c1O)COC2`: the GI50 in [1] was over 100 µM; in [2] it was > 100 µM (inactive); in assay [18], > 100 µM (inactive); in assay [4], > 100 µM (inactive); in [6], > 100 µM (inactive); in assay [7], 46.1 µM (inactive). The GI50 in [8], in assay [9], in assay [10], in [11], in assay [12] and in [14] was > 100 µM (inactive) throughout. The GI50 in assay [15] is 6.04 µM (inactive); in assay [16], > 100 µM (inactive); in assay [17] it was > 100 µM (inactive).
`CC1=NN(c2nc(N)nc(-c3sccc3N)n2)C(C)(C)C1`: the GI50 in assay [1] is 59.4 µM; in assay [2], > 100 µM (inactive); in assay [3], > 100 µM (inactive); in assay [19], 89.3 µM (inactive); in assay [18], > 100 µM (inactive); in assay [4], 44.1 µM (inactive). Besides, the GI50 in [5] is 73.1 µM (inactive); in assay [6], 33.1 µM (inactive); in assay [7], 64.9 µM (inactive); in assay [8], > 100 µM (inactive); in assay [9] it was 21.7 µM (inactive); in assay [10], > 100 µM (inactive). In addition, the GI50 in assay [11] is 62.5 µM (inactive); in assay [13], > 100 µM (inactive); in assay [15], > 100 µM (inactive); in assay [16] it was > 100 µM (inactive); in assay [17] it was > 100 µM (inactive).
Consider `COc1ccc(NC(=O)/C(O)=C/C(=O)c2ccccc2)cc1`, for which the GI50 is over 10 µM in assay [1]; > 10 µM (inactive) in [2]; > 10 µM (inactive) in assay [3]; 7.38 µM (inactive) in [18]; > 10 µM (inactive) in assay [4]; > 10 µM (inactive) in assay [5]. Further, the GI50 in assay [7], in assay [9], in assay [11], in assay [12], in assay [16] and in assay [17] was > 10 µM (inactive) throughout.
As to `CC1CCCc2c(CC3CC(=O)NC(=O)C3)nc(N)nc21` (stereo not given), the GI50 in [1] is over 100 µM; in assay [2], > 100 µM (inactive); in assay [3] it was > 100 µM (inactive); in assay [18], > 100 µM (inactive); in [4], > 100 µM (inactive); in [5], > 100 µM (inactive). Moreover, the GI50 in assay [6], in [7], in [8], in assay [9], in assay [10] and in [11] was > 100 µM (inactive) throughout. Further, the GI50 in assay [12], in [13], in assay [14], in assay [16] and in assay [17] was > 100 µM (inactive) in each case.
For the compound `ClC1=C(Cl)C(Cl)(Cl)c2c3c(c4c(c21)C(Cl)(Cl)C(Cl)=C4Cl)C(Cl)(Cl)C(Cl)=C3Cl`, the GI50 in assay [1] was over 100 µM; in [2], > 100 µM (inactive); in assay [3], > 100 µM (inactive); in [18] it was > 100 µM (inactive); in assay [4] it was > 100 µM (inactive); in assay [6], > 100 µM (inactive). The GI50 in [7], in [8], in assay [11], in assay [13], in assay [15] and in [17] was > 100 µM (inactive) each time.
`COc1cc(C2SCCCCCCCCCCSC(c3ccc(O)c(OC)c3)SCCCCCCCCCCS2)ccc1O` (stereo not given): the GI50 in [1] was over 100 µM; in assay [2], > 100 µM (inactive); in assay [3], > 100 µM (inactive); in assay [18], > 100 µM (inactive); in assay [4], > 100 µM (inactive); in assay [5], > 100 µM (inactive). Moreover, the GI50 in assay [6], in assay [7], in assay [9], in assay [10], in [11] and in assay [12] was > 100 µM (inactive) in each case. For the same compound, the GI50 in assay [14], in [15], in assay [16] and in [17] was > 100 µM (inactive) throughout.
Consider `CC(C)C[C@H](NC(=O)[C@@H](N)Cc1cccc2ccccc12)B(O)O`, for which the GI50 in assay [1] is 0.033 µM; in assay [2] it was 0.0575 µM (active); in [3] it was < 0.0178 µM (active); in assay [18], 0.0665 µM (active); in assay [5] it was 0.0354 µM (active); in [6], < 0.0132 µM (active). In addition, the GI50 in [7] was 0.0249 µM (active); in assay [8], < 0.0149 µM (active); in assay [9], 0.232 µM (active); in assay [10], 0.0272 µM (active); in assay [11] it was 0.0719 µM (active); in [12], 0.0667 µM (active). Besides, the GI50 in assay [13] is 0.0143 µM (active); in assay [14], 0.0399 µM (active); in assay [15], 2.47 µM (inactive); in [16], < 0.0182 µM (active); in assay [17] it was 0.0311 µM (active).
